The source made the active and inactive calls. No cut-off for these calls is given here.
How the values were obtained:
Type in all cases: functional
Syphacia obvelata [1] = assay: Anthelmintic activity against Syphacia obvelata infected in mouse assessed as reduction in worm burden at 300 mg/kg, po bid for 5 days; conditions: 120 h
Syphacia obvelata [2] = assay: Anthelmintic activity against Syphacia obvelata infected in mouse assessed as reduction in worm burden at 100 mg/kg, po bid for 5 days; conditions: 120 h
Syphacia obvelata [3] = assay: Anthelmintic activity against Syphacia obvelata infected in mouse assessed as reduction in worm burden at 50 mg/kg, po bid for 5 days; conditions: for inhibition in vivo at 50 mg/kg: 120 h
Syphacia obvelata [4] = assay: Anthelmintic activity against Syphacia obvelata infected in mouse assessed as reduction in worm burden at 25 mg/kg, po bid for 5 days; conditions: for inhibition in vivo at 25 mg/kg: 120 h
Syphacia obvelata [5] = assay: Anthelmintic activity against Syphacia obvelata infected in mouse assessed as reduction in worm burden at 10 mg/kg, po bid for 5 days

Row | Structure (SMILES) | inhibition in vivo at 300 mg/kg (Syphacia obvelata [1]) [%] | inhibition in vivo at 100 mg/kg (Syphacia obvelata [2]) [%] | inhibition in vivo at 50 mg/kg (Syphacia obvelata [3]) [%] | inhibition in vivo at 25 mg/kg (Syphacia obvelata [4]) [%] | inhibition (Syphacia obvelata [5]) | inhibition (Syphacia obvelata [4]) | inhibition (Syphacia obvelata [3]) | inhibition in vivo at 10 mg/kg (Syphacia obvelata [5]; 120 h) [%]
1 | O=C(/C=C/c1ccc(Cl)c(Cl)c1)NN1CC(=O)NC1=O | 100 | 100 | 100 | 51 | inactive |  |  | 
2 | O=C(/C=C/c1ccc(F)c(Cl)c1)NN1CC(=O)NC1=O | 100 | 100 | 87 |  |  | inactive |  | 
3 | Cc1cc(/C=C/C(=O)NN2CC(=O)NC2=O)ccc1Br | 100 | 81 |  |  |  |  | inactive | 
4 | O=C(/C=C/c1ccccc1)NN1CC(=O)NC1=O | 86 | 75 |  |  |  |  | inactive | 
5 | O=C(/C=C/c1ccc(Cl)cc1)NN1CC(=O)NC1=O | 100 | 97 | 52 |  |  | inactive |  | 
6 | C1CNCCN1.O=C(O)CCCCC(=O)O | 96 | 42 |  |  |  |  | inactive | 
7 | O=C(/C=C/c1cccc(F)c1)NN1CC(=O)NC1=O | 100 | 77 |  |  |  |  | inactive | 
8 | O=C(/C=C/c1ccc(F)cc1)NN1CC(=O)NC1=O | 100 | 69 | 67 |  |  | inactive |  | 
9 | CCc1ccc(/C=C/C(=O)NN2CC(=O)NC2=O)cc1Cl | 100 | 87 |  |  |  |  | inactive | 
10 | Cc1ccc(/C=C/C(=O)NN2CC(=O)NC2=O)cc1Cl | 99 | 97 | 100 | 87 |  |  |  | 34
11 | O=C(/C=C/c1ccc(Cl)c(C(F)(F)F)c1)NN1CC(=O)NC1=O | 70 | 76 |  |  |  |  | inactive | 
12 | N#Cc1ccc(/C=C/C(=O)NN2CC(=O)NC2=O)cc1 | 100 | 100 | 100 | 97 | inactive |  |  | 
13 | O=C(/C=C/c1ccc2c(c1)OCO2)NN1CC(=O)NC1=O | 100 | 88 |  |  |  |  | inactive | 

Source: ChEMBL document CHEMBL3272209, “Anthelmintic 1-cinnamamido-2,4-imidazolidinediones” (1976)
